The source of these data is patent publication US12286429B2, “5-oxo-1,2,3,5,8,8a-hexahydroindolizine-3-carboxamide derivatives useful as a factor XIa inhibitors” (Janssen Pharmaceutica NV, priority 2021, dated 2025).

In assay [1] the target is Factor XIa (Homo sapiens, UniProt P03951). The experiment in a line: Factor XIa inhibition assay utilizing a fluorophore-quencher pair peptide substrate (FLINT). Type of assay: biochemical. Particulars: 11-point, 3-fold serial dilution, top 100 nM; 30 min preincubation; 15 μM 5Fam-KLTRAETV-K5Tamra substrate; kinetic reads over 30 min; read-out: FXIa Inhibition IC50. The essentials:
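FXIa ([…]) preincubated 30 min with compound (11-point, 3-fold, top 100 nM, 2% DMSO) in Tris pH 7.5, NaCl, CaCl2, BSA, CHAPS; 15 μM 5Fam-KLTRAETV-K5Tamra substrate then added. Fluorescence (485/520 nm) read kinetically over 30 min at room temperature; IC50 by 4-parameter fit.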

Assay [2] has as its target human plasma kallikrein (Homo sapiens, UniProt P03952). Nature of the assay: Kallikrein inhibition assay utilizing a quenched AMC peptide substrate (FLINT). The assay is classed as biochemical. Particulars: 11-point, 3-fold serial dilution, top 1 μM; 30 min preincubation; 2 nM kallikrein; 50 μM Z-Gly-Pro-Arg-AMC; kinetic reads over 30 min. An outline of the steps: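 Human plasma kallikrein (2 nM final) was pre-incubated 30 min at room temperature with compound (11-point 3-fold series, top 1 μM, 2% DMSO) in Tris pH 7.5, NaCl, CaCl2, BSA, CHAPS buffer. Reaction started with 50 μM Z-Gly-Pro-Arg-AMC (KM 40 μM), and fluorescence (340/440 nm) was read kinetically over 30 min. IC50 came from a 4-parameter logistic fit.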

pIC50: −log10 of the molar value. A value given as a limit tells only on which side of the number the result lay.

Chain of human plasma kallikrein (P03952 391-638 limits assumed): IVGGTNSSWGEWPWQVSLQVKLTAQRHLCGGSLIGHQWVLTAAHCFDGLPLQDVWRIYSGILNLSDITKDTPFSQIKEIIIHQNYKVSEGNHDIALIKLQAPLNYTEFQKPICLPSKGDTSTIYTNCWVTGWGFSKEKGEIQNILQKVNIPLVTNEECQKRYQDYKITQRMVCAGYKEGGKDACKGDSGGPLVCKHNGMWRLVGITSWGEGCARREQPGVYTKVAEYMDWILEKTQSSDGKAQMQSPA
Chain of human plasma kallikrein (P03952 20-390 partner limits assumed): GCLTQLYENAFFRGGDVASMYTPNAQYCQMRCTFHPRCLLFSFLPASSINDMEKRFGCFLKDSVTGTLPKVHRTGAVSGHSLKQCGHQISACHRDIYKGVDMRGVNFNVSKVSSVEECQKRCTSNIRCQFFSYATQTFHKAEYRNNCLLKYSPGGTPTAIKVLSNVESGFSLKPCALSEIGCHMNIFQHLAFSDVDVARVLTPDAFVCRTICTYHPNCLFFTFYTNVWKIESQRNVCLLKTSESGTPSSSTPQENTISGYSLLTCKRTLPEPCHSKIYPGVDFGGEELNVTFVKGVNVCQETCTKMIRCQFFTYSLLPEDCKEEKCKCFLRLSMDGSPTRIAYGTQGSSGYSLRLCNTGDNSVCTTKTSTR
Chain of Factor XIa (P03951 388-625 limits assumed): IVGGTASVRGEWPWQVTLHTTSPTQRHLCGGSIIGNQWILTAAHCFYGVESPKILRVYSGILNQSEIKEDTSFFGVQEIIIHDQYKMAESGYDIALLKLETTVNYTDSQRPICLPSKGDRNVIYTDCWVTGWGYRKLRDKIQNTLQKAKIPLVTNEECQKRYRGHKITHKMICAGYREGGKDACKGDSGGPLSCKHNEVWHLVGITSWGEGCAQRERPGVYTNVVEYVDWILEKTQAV
Chain of Factor XIa (P03951 19-387 partner limits assumed): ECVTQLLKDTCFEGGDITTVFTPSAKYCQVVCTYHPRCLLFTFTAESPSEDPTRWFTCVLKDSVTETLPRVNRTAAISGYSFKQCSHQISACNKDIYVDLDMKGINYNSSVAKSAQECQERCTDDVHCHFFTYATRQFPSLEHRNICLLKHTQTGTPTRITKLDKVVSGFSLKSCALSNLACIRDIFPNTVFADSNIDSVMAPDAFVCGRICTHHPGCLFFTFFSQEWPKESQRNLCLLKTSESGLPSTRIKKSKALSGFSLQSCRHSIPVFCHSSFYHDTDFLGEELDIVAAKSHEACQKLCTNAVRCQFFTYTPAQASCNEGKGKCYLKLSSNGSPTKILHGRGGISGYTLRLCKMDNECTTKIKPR

Broadly, the pIC50 is the negative decadic logarithm of the IC50, by convention in mol/L. With `CCn1cnc2ccc(NC(=O)[C@@H]3CC[C@@H]4CC(c5c(-n6cnnn6)ccc(Cl)c5F)=CC(=O)N43)cc2c1=O` [ID No. 14, (3S,8aR)-7-(3-Chloro-2-fluoro-6-(1H-tetrazol-1-yl)phenyl)-N-(3-ethyl-4-oxo-3,4-dihydroquinazolin-6-yl)-5-oxo-1,2,3,5,8,8a-hexahydroindolizine-3-carboxamide], the results for the pIC50 in assay [1] and in assay [2] were 7.64 and 7.22, respectively.

`O=C(Nc1ccc2c(c1)C(F)(F)C(=O)N2)[C@@H]1CC[C@@H]2CC(c3c(-n4cnnn4)ccc(Cl)c3F)=CC(=O)N21` [ID No. 15, (3S,8aR)-7-(3-Chloro-2-fluoro-6-(1H-tetrazol-1-yl)phenyl)-N-(3,3-difluoro-2-oxoindolin-5-yl)-5-oxo-1,2,3,5,8,8a-hexahydroindolizine-3-carboxamide]: the pIC50 in assay [1] was 7.43; in assay [2], 7.25.

In the case of `Cn1nc2ccc(NC(=O)[C@@H]3CC[C@@H]4CC(c5c(-n6cnnn6)ccc(Cl)c5F)=CC(=O)N43)cc2n1` [ID No. 16, (3S,8aR)-7-(3-Chloro-2-fluoro-6-(1H-tetrazol-1-yl)phenyl)-N-(2-methyl-2H-benzo[d][1,2,3]triazol-5-yl)-5-oxo-1,2,3,5,8,8a-hexahydroindolizine-3-carboxamide], the results for the pIC50 in assay [1] and in assay [2] were 7.60 and 7.34, respectively.

For `O=C(Nc1ccc(-c2noc(=O)[nH]2)cc1)[C@@H]1CC[C@@H]2CC(c3c(-n4cnnn4)ccc(Cl)c3F)=CC(=O)N21` [ID No. 17, (3S,8aR)-7-(3-Chloro-2-fluoro-6-(1H-tetrazol-1-yl)phenyl)-5-oxo-N-(4-(5-oxo-4,5-dihydro-1,2,4-oxadiazol-3-yl)phenyl)-1,2,3,5,8,8a-hexahydroindolizine-3-carboxamide], the pIC50 is 8.47 in assay [1] and 7.22 in assay [2].

With `O=C(Nc1ccc2nc[nH]c(=O)c2c1)[C@@H]1CC[C@@H]2CC(c3c(-n4cnnn4)ccc(Cl)c3F)=CC(=O)N21` [ID No. 18, (3S,8aR)-7-(3-Chloro-2-fluoro-6-(1H-tetrazol-1-yl)phenyl)-5-oxo-N-(4-oxo-3,4-dihydroquinazolin-6-yl)-1,2,3,5,8,8a-hexahydroindolizine-3-carboxamide], the values for the pIC50 in assay [1] and in assay [2] were 8.21 and 8.04, respectively.

Turning to `Cn1cc2cc(NC(=O)[C@@H]3CC[C@@H]4CC(c5c(-n6cnnn6)ccc(Cl)c5F)=CC(=O)N43)ccc2n1` [ID No. 19, (3S,8aR)-7-(3-Chloro-2-fluoro-6-(1H-tetrazol-1-yl)phenyl)-N-(2-methyl-2H-indazol-5-yl)-5-oxo-1,2,3,5,8,8a-hexahydroindolizine-3-carboxamide], the pIC50 is 7.40 in assay [1] and 6.77 in assay [2].

Turning to `Cc1nc(-c2ccc(NC(=O)[C@@H]3CC[C@@H]4CC(c5c(-n6cnnn6)ccc(Cl)c5F)=CC(=O)N43)cc2)co1` [ID No. 20, (3S,8aR)-7-(3-Chloro-2-fluoro-6-(1H-tetrazol-1-yl)phenyl)-N-(4-(2-methyloxazol-4-yl)phenyl)-5-oxo-1,2,3,5,8,8a-hexahydroindolizine-3-carboxamide], the pIC50 was 7.59 in assay [1] and 6.95 in assay [2].

Regarding `O=C(Nc1ccc2[nH]nnc2c1)[C@@H]1CC[C@@H]2CC(c3c(-n4cnnn4)ccc(Cl)c3F)=CC(=O)N21` [ID No. 21, (3S,8aR)—N-(1H-Benzo[d][1,2,3]triazol-5-yl)-7-(3-chloro-2-fluoro-6-(1H-tetrazol-1-yl)phenyl)-5-oxo-1,2,3,5,8,8a-hexahydroindolizine-3-carboxamide], the negative logarithm of the IC50 (pIC50) in assay [1] is 8.04; in assay [2], 7.43.

As for `NC(=O)c1ccc(NC(=O)[C@@H]2CC[C@@H]3CC(c4c(-n5cc(C(F)(F)F)nn5)ccc(Cl)c4F)=CC(=O)N32)cc1F` [ID No. 24, (3S,8aR)—N-(4-Carbamoyl-3-fluorophenyl)-7-(3-chloro-2-fluoro-6-(4-(trifluoromethyl)-1H-1,2,3-triazol-1-yl)phenyl)-5-oxo-1,2,3,5,8,8a-hexahydroindolizine-3-carboxamide], the pIC50 is 7.42 in assay [1] and 7.12 in assay [2].

With `NC(=O)c1ccc(NC(=O)[C@@H]2CC[C@@H]3CC(c4cc(Cl)ccc4-n4cc(C(F)(F)F)nn4)=CC(=O)N32)cc1F` [ID No. 25, (3S,8aR)—N-(4-Carbamoyl-3-fluorophenyl)-7-(5-chloro-2-(4-(trifluoromethyl)-1H-1,2,3-triazol-1-yl)phenyl)-5-oxo-1,2,3,5,8,8a-hexahydroindolizine-3-carboxamide], the pIC50 in assay [1] was 7.55; in assay [2], 6.93.

For `CN(C)c1ccnc2ccc(NC(=O)C3CCC4CC(c5c(-n6cnnn6)ccc(Cl)c5F)=CC(=O)N43)cc12` (stereo not shown) [compound 87], the values for the pIC50 in assay [1] and in assay [2] were 7.68 and 7.19, respectively.

As to `CN(C)c1ccnc2ccc(NC(=O)C3CCC4CC(c5c(-n6cc(Cl)nn6)ccc(Cl)c5F)=CC(=O)N43)cc12` (stereo not shown) [compound 88], the figures for the negative-log IC50 (pIC50) in assay [1] and in assay [2] were less than 7.30 and 6.80, respectively.

For the compound `CN(C)c1ccnc2ccc(NC(=O)C3CCC4CC(c5c(-n6cc(C(F)(F)F)nn6)ccc(Cl)c5F)=CC(=O)N43)cc12` (stereo not shown) [compound 89], the pIC50 in assay [1] is less than 7.30; in assay [2] it was 6.20.

Turning to `[2H]c1nnnn1-c1ccc(Cl)c(F)c1C1=CC(=O)N2C(CCC2C(=O)Nc2ccc3c(c2)C2(CC2)C(=O)N3)C1` (stereo not shown) [compound 96], the figures for the pIC50 in assay [1] and in assay [2] were 7.37 and 6.89, respectively.

Consider `CC1C(=O)Nc2c(NC(=O)[C@@H]3CC[C@@H]4CC(c5c(-n6cc(C(F)(F)F)nn6)ccc(Cl)c5F)=CC(=O)N43)cccc21` (stereo partly shown) [compound 102], for which the pIC50 in assay [1] was less than 7.30; in assay [2], 6.24.

For `Cn1nc2ccc(NC(=O)C3CCC4CC(c5c(-n6cc(Cl)nn6)ccc(Cl)c5F)=CC(=O)N43)cc2n1` (stereo not shown) [compound 105], the pIC50 in assay [1] was less than 7.30; in assay [2] it was 6.92.

Turning to `Cn1nc2ccc(NC(=O)C3CCC4CC(c5c(-n6cc(C(F)(F)F)nn6)ccc(Cl)c5F)=CC(=O)N43)cc2n1` (stereo not shown) [compound 106], the pIC50 in assay [1] is less than 7.30; in assay [2], 6.30.
